This is an account of results in patent US8754094B2, “Methods for heat shock protein dependent cancer treatment” (The Research Foundation of State University of New York, priority 2007, dated 2014).

Entries after “also recorded” stand apart in the source; their conditions may differ. Read-outs that look alike come from different tables or passages of the source. Residues, ends and D or L forms follow the SMILES beside them. *: point of attachment. Cbz = O=C(OCc1ccccc1)*

Data set [1] relates to BiP. Nature of the data set: Levels of ER lumenal chaperone BiP in NCI-H929. It is filed as cell-based, human. To be noted: NCI-H929, data not shown.
The subject of data set [2] is primary MM cells. Nature of the data set: MTS survival assay, primary bone-marrow MM tumor cells from patients. It counts as cell-based, human. Conditions: FIG. 36C. How it is done: Primary bone-marrow tumor cells and endothelial progenitor cells (EPCs) were obtained from previously untreated MM patients. That is, 10 ml bone marrow aspirates were collected in BD Vacutainers containing heparin (BD, Franklin, N.J.), and red cells may be removed from MM bone marrow samples using a Red Blood Cell Lysis Buffer (Roche Applied Science, Indianapolis, Ind.) to obtain primary tumor cells in marrow samples consisting of greater than 80% CD138-positive tumor cells, determined by flow cytometry as may be desired. Tumor cells were used for experiments the day they were harvested, and were cultured in the MM cell line medium described above.
MAL3-101 (the structure is shown as the final product in FIG. 12, in FIG. 13, and in FIG. 25B), the proteasome inhibitor MG-132 (A.G. Scientific, San Diego, Calif.) and the Hsp90 inhibitor 17-allylamino-17-demethoxygeldanamycin (17-AAG) (Calbiochem/EMD Biosciences, San Diego, Calif.) were dissolved in dimethylsulfoxide (DMSO; Sigma-Aldrich, St. Louis, Mo.), and stored at −20° C. Final concentration of DMSO was 0.03% and this was used to treat control cells. The MM cell lines examined were NCI-H929, RPMI-8226, and U266 (ATCC, Manassas, Va.). Normal peripheral blood mononuclear cells (PBMC) and bone marrow (BM) cells were obtained from StemCell Technologies (Vancouver, Canada). […]
(In general: Tetrazolium assays rely on reduction of a dye to a coloured formazan, in cell work by metabolically active cells.)

Data set [3] has as its system NCI-H929. Nature of the data set: cells. The procedure: For cell survival assays, cells were plated in 96-well culture plates (BD Biosciences, San Jose, Calif.), 100,000 cells/well with 200 μl, of culture media. The effect of the drugs on cell survival was assessed, for example, by measuring 3-(4,5-dimethylthiazol-2-yl)-5-(3-carboxymethoxyphenyl)-2-(4-sulphophenyl)-2H-tetrazolium, inner salt (MTS) (Promega, Madison, Wis.) dye absorbance of viable cells by adding 40 μL of 5 mg/mL MTS to each well for the last 4 hours of drug exposure. Additional wells containing cells only (untreated control) or medium only (background medium control) were used as controls. Absorbance at 490 nm (A490) was measured using a spectrophotometer (Dynatech Laboratories, Chantilly, Va.). Viability was estimated according to the following formula: […]
Briefly, the cellular fraction affected (Fa) was calculated based on an MTS assay after exposing cells to the drugs alone or in combination at a given dose compared to untreated cells, using the formula: Fa=100−% Viable Cells. Fa values were entered into Calcusyn software (Biosoft, Ferguson, Mo. and Cambridge, United Kingdom) to obtain CI values. CI values <1.0 indicated a synergistic effect of the drugs used in combination. For Inhibitory Concentration, or IC, calculations, dose-effect curves for MAL3-101, MG-132, 17-AAG, and their combinations were used to interpolate the median inhibitory concentration that caused 30% (IC30), 50% (IC50), and 70% (IC70) reductions in the % viable cells compared to untreated cells.
Cells (1×10^5) were plated in 96-well microtiter plates (Costar, Cambridge, Mass.) in 100 μL, of growth medium and exposed for indicated periods to various concentrations of compounds or their combinations. Control cells were cultured in DMSO. All studies were performed in triplicate and repeated at least three times independently. Survival was measured by an MTS assay (Promega, Madison, Wis.) as per the manufacturer's directions. The absorbance (A450) ratio of treated to untreated cells, after the subtraction of background absorbance, was multiplied by 100 to obtain percent cell survival. Cell death was measured by trypan blue dye exclusion in identically plated cultures.
DMSO-treated cultures were compared to drug-treated cultures by Student's t tests or by Dunnett's post-hoc test following significant repeated-measures one-way analysis of variance. All tests were two-tailed, and statistical significance was set at P≦0.05. Isobologram analysis was performed to derive combination index (CI) values based upon the Chou-Talalay method using CalcuSyn software (Biosoft, Ferguson, Mo. and Cambridge, United Kingdom) as described in L. Catley, E. Weisberg, T. Kiziltepe, Y. T. Tai, T. Hideshima, P. Neri, P. Tassone, P. Atadja, D. Chauhan, N. C. Munshi, K. C. Anderson, Aggresome induction by proteasome inhibitor Bortezomib and {alpha}-tubulin hyperacetylation by tubulin deacetylase (TDAC) inhibitor LBH589 are synergistic in myeloma cells, Blood (2006), which is incorporated herein by reference.

[4] abbreviates: read-out: IC50 (reduction of % viable cells), single agent, NCI-H929, 40 h exposure, MTS assay, agent alone.

Turning to `CCCCCCN(C(=O)CCCCCN1C(=O)NC(c2ccc(-c3ccccc3)cc2)C(C(=O)OCc2ccccc2)=C1C)C(C(=O)NCCCC)c1ccc(OCC(=O)OC)c(C(=O)OC)c1` (stereo not shown) [MAL3-101], in data set [1], the “levels of BiP” value is “did not change”. The “reduction of viability of MM cells extracted from the BM” value in data set [2] amounted to 33±8%. Also, the “cytotoxicity compared among MM cell lines” value in data set [3] (10 μM, NCI-H929 versus RPMI-8226 and U266) is recorded as “most sensitive; also recorded: highest level of cytotoxicity”. In addition, the IC50 – broadly, the concentration at which inhibition is half-maximal – was determined as 8300 nM in data set [3] (setting [4]) and 10000 nM in data set [3] (read-out: IC50 as stated in the detailed description, multiple myeloma cells, rounded statement of the description).

Turning to `CC(C)C[C@@H](C=O)NC(=O)[C@H](CC(C)C)NC(=O)[C@H](CC(C)C)NC(=O)OCc1ccccc1` [MG-132, reference compound] (Cbz-Leu-Leu-Leu-aldehyde), the “levels of BiP” value in data set [1] is given as “did not change”. The “reduction of viability of MM cells extracted from the BM” value in data set [2] is listed as 44±10%. Further, the IC50 in data set [3] (Homo sapiens, NCI-H929, 40 h, read-out: IC50 (reduction of % viable cells), single agent, NCI-H929, 40 h exposure, MTS assay, agent alone) amounted to 1000 nM; in data set [3] (Homo sapiens, NCI-H929, 40 h, read-out: IC50 of MG-132 in the presence of MAL3-101, NCI-H929, 40 h, MTS, MAL3-101 and MG-132 at equal concentrations), 10 nM; in data set [3] (setting [4]) it was 1700 nM.
